# Reference: ChEMBL document CHEMBL1201862, “PubChem BioAssay data set” (2004)
# Activity calls are given as the source filed them.
# Legend:
# [1] = molecular target: T1, Heat shock factor protein 1 (Mus musculus, UniProt P38532); test: decrease of HSF1-responsive luciferase luminescence – cell-based, NIH3T3, dose retest, confirmation (AID 2382); assay type: functional;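 further: NIH3T3 fibroblasts with HSF1-driven luciferase reporter stressed by proteasome inhibitor MG132; luminescence from HSF1-driven luciferase expression after 8 hours of MG132 stress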
# T1 sequence (P38532 whole entry): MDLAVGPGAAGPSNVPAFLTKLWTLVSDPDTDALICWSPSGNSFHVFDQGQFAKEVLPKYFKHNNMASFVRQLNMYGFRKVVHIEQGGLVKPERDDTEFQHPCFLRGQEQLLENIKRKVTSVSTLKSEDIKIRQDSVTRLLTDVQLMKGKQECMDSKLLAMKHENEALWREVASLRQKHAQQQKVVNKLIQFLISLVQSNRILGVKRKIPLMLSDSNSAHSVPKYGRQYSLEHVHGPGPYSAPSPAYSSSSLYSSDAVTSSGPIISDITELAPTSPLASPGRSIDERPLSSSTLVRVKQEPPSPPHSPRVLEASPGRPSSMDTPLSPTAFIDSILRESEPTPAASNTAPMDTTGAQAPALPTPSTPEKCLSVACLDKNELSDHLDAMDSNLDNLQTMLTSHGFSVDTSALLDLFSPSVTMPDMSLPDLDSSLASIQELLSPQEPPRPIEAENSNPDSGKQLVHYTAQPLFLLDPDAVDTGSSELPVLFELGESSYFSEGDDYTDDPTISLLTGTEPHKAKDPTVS
# Cytochrome P450 2C19 = Cytochrome P450 2C19 (Homo sapiens, UniProt P33261); test: Cytochrome panel assay with activity outcomes. Panel member name: p450-cyp2c19 Compounds with AC50 equal or less than 10 uM are considered active; assay type: functional; conditions: read-out: AC50
# Chain of Cytochrome P450 2C19 (P33261 whole entry): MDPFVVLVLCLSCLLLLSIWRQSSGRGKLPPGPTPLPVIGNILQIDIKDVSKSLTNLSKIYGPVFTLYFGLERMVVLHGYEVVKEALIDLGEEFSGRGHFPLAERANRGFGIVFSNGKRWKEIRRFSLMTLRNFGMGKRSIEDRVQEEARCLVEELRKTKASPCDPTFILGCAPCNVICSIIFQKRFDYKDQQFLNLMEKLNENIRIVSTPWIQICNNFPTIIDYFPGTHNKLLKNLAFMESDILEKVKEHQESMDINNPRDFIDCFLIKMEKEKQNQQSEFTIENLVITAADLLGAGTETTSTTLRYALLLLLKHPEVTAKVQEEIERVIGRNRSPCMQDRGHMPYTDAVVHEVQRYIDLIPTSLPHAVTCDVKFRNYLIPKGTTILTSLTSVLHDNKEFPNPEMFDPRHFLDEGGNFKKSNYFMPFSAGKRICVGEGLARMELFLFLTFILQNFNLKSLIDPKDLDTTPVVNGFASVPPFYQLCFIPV
# Cytochrome P450 2D6 = Cytochrome P450 2D6 (Homo sapiens, UniProt P10635);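 further: CYP2D6 member of a cytochrome P450 panel assay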
# Chain of Cytochrome P450 2D6 (P10635 whole entry): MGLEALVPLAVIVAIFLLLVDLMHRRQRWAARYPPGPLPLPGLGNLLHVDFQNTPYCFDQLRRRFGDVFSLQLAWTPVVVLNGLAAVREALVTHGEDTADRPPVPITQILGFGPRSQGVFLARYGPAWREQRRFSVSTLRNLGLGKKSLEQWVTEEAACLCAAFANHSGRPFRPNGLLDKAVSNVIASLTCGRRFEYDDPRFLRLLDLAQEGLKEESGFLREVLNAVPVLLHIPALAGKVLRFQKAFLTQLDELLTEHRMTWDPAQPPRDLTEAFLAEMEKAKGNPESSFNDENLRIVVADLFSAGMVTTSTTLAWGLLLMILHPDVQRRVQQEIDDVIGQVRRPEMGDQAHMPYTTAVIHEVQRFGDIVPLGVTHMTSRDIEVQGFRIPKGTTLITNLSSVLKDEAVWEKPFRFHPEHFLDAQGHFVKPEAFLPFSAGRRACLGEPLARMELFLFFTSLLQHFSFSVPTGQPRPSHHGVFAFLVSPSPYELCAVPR
# Cytochrome P450 1A2 = molecular target: T2, Cytochrome P450 1A2 (Homo sapiens, UniProt P05177);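 further: PubChem cytochrome P450 panel assay, CYP1A2 panel member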
# T2 sequence (P05177 whole entry): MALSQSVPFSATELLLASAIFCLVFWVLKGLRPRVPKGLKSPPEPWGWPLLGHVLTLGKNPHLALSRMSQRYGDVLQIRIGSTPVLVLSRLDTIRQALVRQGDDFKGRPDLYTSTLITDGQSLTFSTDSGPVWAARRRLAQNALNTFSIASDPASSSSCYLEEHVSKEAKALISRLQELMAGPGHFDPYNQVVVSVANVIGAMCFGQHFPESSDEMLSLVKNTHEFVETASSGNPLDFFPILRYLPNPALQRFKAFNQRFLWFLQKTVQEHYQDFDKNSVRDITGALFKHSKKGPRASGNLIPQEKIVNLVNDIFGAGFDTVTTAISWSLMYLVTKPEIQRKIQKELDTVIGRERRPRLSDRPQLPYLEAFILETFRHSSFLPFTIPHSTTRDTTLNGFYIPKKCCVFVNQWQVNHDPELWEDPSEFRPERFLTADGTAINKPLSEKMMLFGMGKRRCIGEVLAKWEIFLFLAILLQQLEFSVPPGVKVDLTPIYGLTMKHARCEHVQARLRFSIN
# Cytochrome P450 3A4 = Cytochrome P450 3A4 (Homo sapiens, UniProt P08684);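 further: CYP3A4 tested as one member of a cytochrome P450 panel screen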
# Chain of Cytochrome P450 3A4 (P08684 whole entry): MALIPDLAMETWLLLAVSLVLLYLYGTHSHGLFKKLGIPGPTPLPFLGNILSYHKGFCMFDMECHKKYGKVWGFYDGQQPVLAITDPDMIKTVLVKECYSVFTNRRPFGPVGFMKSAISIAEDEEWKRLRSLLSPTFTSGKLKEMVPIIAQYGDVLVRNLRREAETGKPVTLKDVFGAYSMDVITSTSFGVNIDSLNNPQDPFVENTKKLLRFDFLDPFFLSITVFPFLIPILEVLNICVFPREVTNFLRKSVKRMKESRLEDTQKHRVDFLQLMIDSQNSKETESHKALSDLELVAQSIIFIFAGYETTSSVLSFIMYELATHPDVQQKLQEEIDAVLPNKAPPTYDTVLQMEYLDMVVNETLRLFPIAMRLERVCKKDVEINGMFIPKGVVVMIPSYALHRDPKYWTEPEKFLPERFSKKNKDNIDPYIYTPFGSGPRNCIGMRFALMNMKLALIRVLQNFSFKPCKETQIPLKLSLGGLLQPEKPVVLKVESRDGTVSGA
# Cytochrome P450 2C9 = Cytochrome P450 2C9 (Homo sapiens, UniProt P11712)
# Chain of Cytochrome P450 2C9 (P11712 whole entry): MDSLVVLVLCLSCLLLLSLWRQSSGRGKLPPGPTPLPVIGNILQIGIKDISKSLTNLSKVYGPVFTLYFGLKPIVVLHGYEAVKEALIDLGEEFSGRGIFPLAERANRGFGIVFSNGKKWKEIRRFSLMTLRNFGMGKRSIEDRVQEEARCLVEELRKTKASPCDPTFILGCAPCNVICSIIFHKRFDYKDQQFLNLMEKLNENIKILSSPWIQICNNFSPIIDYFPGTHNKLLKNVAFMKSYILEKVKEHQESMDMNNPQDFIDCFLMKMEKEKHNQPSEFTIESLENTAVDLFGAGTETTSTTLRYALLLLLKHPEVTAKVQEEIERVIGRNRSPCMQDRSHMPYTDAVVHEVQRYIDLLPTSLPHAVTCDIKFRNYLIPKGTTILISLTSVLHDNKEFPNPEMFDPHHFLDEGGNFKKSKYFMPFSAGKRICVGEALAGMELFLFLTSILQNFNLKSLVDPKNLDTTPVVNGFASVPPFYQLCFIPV
# H9c2 = test: cells; assay type: functional, cell-based; conditions: Rattus norvegicus, H9c2, Myocardium;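 further: confirmatory concentration-response retest of ultra-high-throughput screening hits for modulation of myocardial damage; cell death induced by hydrogen peroxide oxidative stress; compound pretreatment for 60 min then peroxide exposure for 2 h; potency is for protecting the cells against peroxide damage rather than for killing them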
# [2] = molecular target: T3, Replicative DNA helicase DnaB (Mycobacterium tuberculosis, UniProt P9WMR3); test: DnaB intein splicing inhibitors, dose response, biochemical, cell-free fluorescence (AID 449749); assay type: functional
# T3 sequence (P9WMR3 whole entry): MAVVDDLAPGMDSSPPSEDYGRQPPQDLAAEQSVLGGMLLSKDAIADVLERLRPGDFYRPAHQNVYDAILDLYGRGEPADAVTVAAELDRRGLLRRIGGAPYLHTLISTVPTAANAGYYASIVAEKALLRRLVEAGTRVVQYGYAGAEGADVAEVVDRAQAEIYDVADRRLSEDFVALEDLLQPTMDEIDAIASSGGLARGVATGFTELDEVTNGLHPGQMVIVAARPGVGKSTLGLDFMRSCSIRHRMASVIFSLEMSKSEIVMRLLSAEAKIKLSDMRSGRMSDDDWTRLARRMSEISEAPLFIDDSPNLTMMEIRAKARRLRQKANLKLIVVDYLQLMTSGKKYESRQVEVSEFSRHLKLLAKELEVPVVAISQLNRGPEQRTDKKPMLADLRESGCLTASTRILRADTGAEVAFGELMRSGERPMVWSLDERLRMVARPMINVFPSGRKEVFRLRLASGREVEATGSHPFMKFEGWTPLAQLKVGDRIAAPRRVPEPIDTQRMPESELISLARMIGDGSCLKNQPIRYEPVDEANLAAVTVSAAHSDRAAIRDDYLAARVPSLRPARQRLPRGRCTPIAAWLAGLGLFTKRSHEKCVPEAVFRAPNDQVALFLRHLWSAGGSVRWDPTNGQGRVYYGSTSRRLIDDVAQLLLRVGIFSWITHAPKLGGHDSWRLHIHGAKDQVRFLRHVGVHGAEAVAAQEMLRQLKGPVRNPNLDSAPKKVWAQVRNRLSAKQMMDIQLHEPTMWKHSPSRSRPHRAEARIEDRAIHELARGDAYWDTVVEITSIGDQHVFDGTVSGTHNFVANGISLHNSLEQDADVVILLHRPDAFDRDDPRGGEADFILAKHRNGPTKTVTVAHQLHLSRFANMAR
# Protein RecA = molecular target: T4, Protein RecA (Mycobacterium tuberculosis, UniProt P9WHJ3); test: Fluorescence Cell-Free Homogeneous Dose Retest to Identify Inhibitors of RecA-Intein Splicing Activity. [Related pubchem assays (depositor defined):AID2097, AID2223, AID489010, AID492950]; assay type: functional
# T4 sequence (P9WHJ3 whole entry): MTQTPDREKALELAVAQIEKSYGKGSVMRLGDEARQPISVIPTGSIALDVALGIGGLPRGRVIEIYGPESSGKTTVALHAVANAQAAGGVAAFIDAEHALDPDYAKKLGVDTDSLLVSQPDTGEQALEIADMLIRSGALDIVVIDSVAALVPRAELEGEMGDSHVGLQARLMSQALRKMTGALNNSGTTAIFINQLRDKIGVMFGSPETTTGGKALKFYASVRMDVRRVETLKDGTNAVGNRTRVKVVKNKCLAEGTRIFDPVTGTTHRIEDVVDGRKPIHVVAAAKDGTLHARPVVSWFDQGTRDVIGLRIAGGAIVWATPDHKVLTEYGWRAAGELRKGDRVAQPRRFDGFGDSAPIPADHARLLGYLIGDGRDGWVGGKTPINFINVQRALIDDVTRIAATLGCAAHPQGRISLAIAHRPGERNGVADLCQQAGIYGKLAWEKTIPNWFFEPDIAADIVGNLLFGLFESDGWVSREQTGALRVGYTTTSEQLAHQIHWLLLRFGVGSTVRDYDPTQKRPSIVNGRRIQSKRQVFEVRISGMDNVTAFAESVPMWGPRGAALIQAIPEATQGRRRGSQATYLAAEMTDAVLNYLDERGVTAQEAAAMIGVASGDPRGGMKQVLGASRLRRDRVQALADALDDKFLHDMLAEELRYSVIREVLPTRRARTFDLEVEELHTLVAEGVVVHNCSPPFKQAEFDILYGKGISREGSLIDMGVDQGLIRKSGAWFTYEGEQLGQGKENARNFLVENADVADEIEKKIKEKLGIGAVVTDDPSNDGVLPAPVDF
# [3] = viability of uninfected HEp-2 cells – cell-based, HTS, cytotoxicity control for RSV inhibitor project, dose response (AID 2410); assay type: functional; conditions: human respiratory syncytial virus
# Paired box protein Pax-8 = Paired box protein Pax-8 (Homo sapiens, UniProt Q06710); test: PAX8 transcriptional activity inhibition in RMG-I – RMG-I cells, luciferase, cherry-pick, dose response (AID 687027); assay type: functional, cell-based;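 further: luciferase reporter driven by Pax8 target thyroperoxidase promoter measured by SteadyGlo luminescence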
# Chain of Paired box protein Pax-8 (Q06710 whole entry): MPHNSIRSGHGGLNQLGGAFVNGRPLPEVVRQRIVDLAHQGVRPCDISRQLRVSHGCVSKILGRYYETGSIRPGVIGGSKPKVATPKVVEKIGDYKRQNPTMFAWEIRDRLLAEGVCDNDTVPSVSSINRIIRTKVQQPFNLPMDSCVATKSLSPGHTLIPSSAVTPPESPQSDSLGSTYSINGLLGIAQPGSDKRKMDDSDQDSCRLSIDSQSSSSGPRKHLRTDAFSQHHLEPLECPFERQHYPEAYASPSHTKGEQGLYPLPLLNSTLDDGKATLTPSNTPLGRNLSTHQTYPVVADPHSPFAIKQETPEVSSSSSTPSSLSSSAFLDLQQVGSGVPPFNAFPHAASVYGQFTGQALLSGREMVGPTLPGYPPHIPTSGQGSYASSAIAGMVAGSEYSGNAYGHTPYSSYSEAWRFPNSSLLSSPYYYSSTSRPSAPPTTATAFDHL
# [4] = luciferase reporter signal suppression in cells – H4 neuroglioma cells, luminescence, dose response (AID 1990); assay type: functional, cell-based
# [5] = Luminescence Cell-Based Dose Response HTS to Identify Inhibitors of 5'UTR Stem-Loop Driven Prion Protein mRNA Translation in H4 Neuroglioblastoma Cells. [Related pubchem assays: 1827 (Project Summary), 1813 (Primary HTS)]; assay type: functional
# [6] = alpha-synuclein stem-loop luciferase translation blockers – H4 neuroglioma cells, luminescence, confirmation (AID 1988); assay type: functional, cell-based
smiles,measurement,setting,value
O=C(CNC(=O)C12CC3CC(CC(C3)C1)C2)NCc1ccccc1,EC50,[1],> 195 µM (not active)
O=Cc1ccc(OC(=O)Cc2ccc(F)cc2)cc1,EC50,[1],> 195 µM (not active)
Cc1ccccc1OCC(=O)Nc1ccc([N+](=O)[O-])cc1,EC50,[1],> 195 µM (not active)
O=C(Oc1ccccc1)N1CCC[C@@]2(CCN(Cc3ccccc3)C2)C1,AC50,Cytochrome P450 2C19,20 µM (inconclusive)
same,AC50,Cytochrome P450 2D6,20 µM (inconclusive)
same,AC50,Cytochrome P450 1A2,15.8 µM (inconclusive)
same,AC50,Cytochrome P450 3A4,15.8 µM (inconclusive)
same,AC50,Cytochrome P450 2C9,20 µM (inconclusive)
C[C@@H]1[C@H]2C=C[C@@H]1[C@@H](c1c3ccc(=O)c(O)c-3oc3c(O)c(O)ccc13)[C@@H]2C(=O)O,AC50,Cytochrome P450 2C19,3.98 µM (inconclusive)
same,AC50,Cytochrome P450 2C9,7.94 µM (inconclusive)
C[C@@H]1Oc2ccc(C(=O)C[C@@H](C(=O)O)c3ccc4c(c3)OCO4)cc2O1,AC50,Cytochrome P450 2C19,5.01 µM (inconclusive)
same,AC50,Cytochrome P450 1A2,0.794 µM (inconclusive)
same,AC50,Cytochrome P450 2C9,6.31 µM (inconclusive)
CC(=O)c1cccc(NC(=O)Nc2ccc3c(c2)N(C)C(=O)CS3)c1,IC50,H9c2,> 79 µM (inactive)
C[C@@H](NC(=O)c1[nH]cnc1C(=O)NCC(=O)OCc1ccccc1)c1ccccc1,IC50,H9c2,> 79 µM (inactive)
CCCN(CCC)C(=O)CSc1nc2ccsc2c(=O)n1NC(=O)c1ccccc1,EC50,[1],> 195 µM (not active)
CC(C)n1nnnc1SCC(=O)NCc1ccc2c(c1)OCO2,AC50,Cytochrome P450 2D6,25.1 µM (inconclusive)
same,AC50,Cytochrome P450 1A2,12.6 µM (inconclusive)
same,AC50,Cytochrome P450 2C9,25.1 µM (inconclusive)
Cc1ccc(C)c(CN2C(=O)C3CCCN3c3ccc(S(=O)(=O)N4CCOCC4)cc32)c1 (configuration not stated),AC50,Cytochrome P450 2C19,6.31 µM (inconclusive)
same,AC50,Cytochrome P450 2C9,14.1 µM (inconclusive)
Cn1ncc([N+](=O)[O-])c1C(=O)Nc1ccccc1Cl,EC50,[1],> 195 µM (not active)
COc1ccc(NS(=O)(=O)c2ccc3[nH]c(COc4ccc5ccccc5c4)nc3c2)cc1,EC50,[1],> 195 µM (not active)
O=C(NCc1ccco1)c1cnn2c(C(F)(F)F)cc(-c3cccs3)nc12,IC50,H9c2,34.1 µM (inactive)
CN1CCN(c2ncc3nc(CCc4ccccc4)c(=O)n(Cc4ccc(F)cc4)c3n2)CC1,AC50,Cytochrome P450 2C9,12.6 µM (inconclusive)
Cc1c(NC(=O)C2CCN(S(=O)(=O)c3ccc(Cl)cc3)CC2)c(=O)n(-c2ccccc2)n1C,AC50,Cytochrome P450 2C9,14.1 µM (inconclusive)
COCCn1nnnc1C(C(C)C)N(Cc1cccnc1)Cc1cc2cc(OC)ccc2nc1O (configuration not stated),IC50,H9c2,21.8 µM (active)
CCc1ccccc1NC(=O)COc1cccc2ccc(C)nc12,EC50,[1],> 195 µM (not active)
CCOc1ccccc1C1C(C#N)=C(N)Oc2[nH]nc(CC)c21 (configuration not stated),AC50,[2],13.4 µM (active)
same,EC50,Protein RecA,7.04 µM (active)
same,AC50,Cytochrome P450 3A4,7.08 µM (inconclusive)
same,AC50,Cytochrome P450 2C9,17.8 µM (inconclusive)
CNc1nc(-c2ccccc2)nnc1C(F)(F)F,CC50,[3],27.7 µM (active)
COc1ccc(CCNC(=O)c2nnc(O)c3ccccc23)cc1,AC50,Cytochrome P450 2C19,2.24 µM (inconclusive)
same,AC50,Cytochrome P450 2D6,5.01 µM (inconclusive)
same,AC50,Cytochrome P450 1A2,7.08 µM (inconclusive)
same,AC50,Cytochrome P450 3A4,7.08 µM (inconclusive)
same,AC50,Cytochrome P450 2C9,3.16 µM (inconclusive)
CC(=O)NC(CCc1ccc(Cl)c(Cl)c1)c1cccc(O)c(=O)c1 (configuration not stated),IC50,H9c2,> 79 µM (inactive)
same,AC50,Paired box protein Pax-8,2.08 µM (active)
Cc1ccc(S(=O)(=O)N(C)C)cc1NC(=O)COC(=O)Cc1nnc(O)c2ccccc12,IC50,H9c2,> 79 µM (inactive)
O=C(CNC(=O)c1ccc(F)cc1)N/N=C/c1cc(Br)ccc1OC(=O)/C=C/c1ccco1,EC50,[4],11.8 µM (active)
same,EC50,[5],12.1 µM (active)
same,EC50,[6],8.72 µM (active)
same,IC50,H9c2,19 µM (active)
CC(=O)Nc1cc(-c2cccc(C(=O)N(C)C)c2)cn2c(-c3ccc(C(C)=O)cc3)cnc12,IC50,H9c2,> 79 µM (inactive)
CCCOc1ccc2[nH]c(C(=O)N/N=C/c3cc(OC)c(OC)c(OC)c3)cc2c1,IC50,H9c2,> 79 µM (inactive)
same,AC50,Paired box protein Pax-8,2.89 µM (active)
Cc1[nH]c2ccccc2c1/C=N/NC(=O)c1cc(-c2ccccc2)[nH]n1,IC50,H9c2,> 79 µM (inactive)
C[C@H](CO)N1C[C@H](C)[C@@H](CN(C)Cc2ccc(Cl)c(Cl)c2)OCCCC[C@H](C)Oc2ccc(NC(=O)Nc3ccccc3)cc2C1=O,AC50,Paired box protein Pax-8,8.65 µM (active)
CCn1cc(C(=O)N/N=C(/C)c2ccc(F)cc2)c(=O)c2cc(F)c(N3CCCC3)cc21,AC50,Cytochrome P450 2C9,10 µM (inconclusive)
CCCN(/C=N/c1sc2c(c1C#N)CCCCC2)CCC,AC50,Cytochrome P450 2D6,15.8 µM (inconclusive)
same,AC50,Cytochrome P450 2C9,12.6 µM (inconclusive)
O=[N+]([O-])c1ccc(O)c(/C=N/c2ccc3oc(Cc4ccc(Cl)cc4)nc3c2)c1,EC50,[1],> 195 µM (not active)
CC1(C)OC(=O)C(/C=N/CC(O)c2ccccc2)=C(O)O1 (configuration not stated),AC50,Cytochrome P450 1A2,25.1 µM (inconclusive)
same,AC50,Cytochrome P450 2C9,31.6 µM (inconclusive)
Nc1nc2c(ncn2[C@@H]2O[C@H](CO)[C@@H](O)[C@H]2O)c(=S)[nH]1 [THIOGUANOSINE],AC50,Paired box protein Pax-8,1.16 µM (active)
